Test results published in US20240247031A1, “COMPOSITION FOR TREATING CANCER CONTAINING TELOMERASE-TARGETING GNRH ANTAGONIST-DERIVED PEPTIDE HS1002” (Research & Business Foundation Sungkyunkwan University, priority 2023, published 2024).
In brackets after ≈: the same amount, converted by molar mass. Where a SMILES comes first, the peptide text is derived from it. [ ]: non-standard residue; d: D form. pGlu = O=C1CC[C@@H](C(=O)O)N1

T1: gonadotropin-releasing hormone (GnRH) receptor (UniProt P30968 1-328, limits assumed)
T1 sequence (looked up): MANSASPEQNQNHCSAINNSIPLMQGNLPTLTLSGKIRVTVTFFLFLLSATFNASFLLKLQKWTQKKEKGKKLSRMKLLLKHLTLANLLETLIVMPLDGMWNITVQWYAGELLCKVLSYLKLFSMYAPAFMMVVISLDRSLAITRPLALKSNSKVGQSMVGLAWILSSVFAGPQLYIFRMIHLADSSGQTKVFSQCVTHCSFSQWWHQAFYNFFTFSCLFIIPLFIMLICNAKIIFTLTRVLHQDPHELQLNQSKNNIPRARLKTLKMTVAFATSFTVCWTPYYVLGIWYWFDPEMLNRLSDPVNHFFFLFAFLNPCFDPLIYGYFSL


Columns and labels:
[1] = test system: LNCaP; assay: cells; assay type: cell-based, human; conditions: 48 h; for Cytotoxicity (IC50) LNCaP: human
Procedure: (§1) To evaluate anticancer activities of the produced peptides on various types of cancer cells, MTT analysis was performed. Human prostate cancer cell lines (LNCaP, PC3, and DU145), human breast cancer cell lines (MDA-MB-231 and MCF-7), lung cancer cell line (A549), and ovarian cancer cell line (SKOV3) were cultured in RPMI media supplemented with 1% penicillin/streptomycin and 1% fetal bovine serum (all from Life Technologies, Grand Island, NY). The cells were seeded in 96-well plates containing 100 μL of growth media for 24 h. The media were removed, and then 100 μL of the peptide (solvent DPBS) at each concentration was added to each well and incubated at 37° C. for 48 h. After incubation for 48 h, 100 μL of MTT reagent was added to each well. The cells were incubated at 37° C. for 4 h, and then the supernatant was removed. Formazan crystals were dissolved in 100 μL of DMSO with gentle stirring at 37° C. for 10 min. The absorbance per well was measured at 540 nm using a VERSA max microplate reader (Molecular Devices Corp.).

[2] = test system: MCF-7; assay: cells; assay type: cell-based, human; conditions: for Cytotoxicity (IC50) MCF-7: human, 48 h
Procedure: as §1

[3] = test system: A549; assay: MTT cytotoxicity on various cancer cells (Table 1); assay type: cell-based, human; conditions: for Cytotoxicity (IC50) A549: human, 48 h
Procedure: as §1

[4] = test system: DU145; assay: MTT cytotoxicity on various cancer cells (Table 1); assay type: cell-based, human; conditions: for Cytotoxicity (IC50) DU145: human, 48 h
Procedure: as §1

[5] = test system: PC3; assay: MTT cytotoxicity on various cancer cells (Table 1); assay type: cell-based, human; conditions: for Cytotoxicity (IC50) PC3: human, 48 h
Procedure: as §1

[6] = test system: SKOV3; assay: MTT cytotoxicity on various cancer cells (Table 1); assay type: cell-based, human; conditions: for Cytotoxicity (IC50) SKOV3: human, 48 h
Procedure: as §1

[7] = molecular target: T1, gonadotropin-releasing hormone (GnRH) …; assay: cell-based or functional assay

Row | Molecule | Cytotoxicity (IC50) LNCaP [1] [µg/mL] | Cytotoxicity (IC50) MCF-7 [2] [µg/mL] | Cytotoxicity (IC50) A549 [3] [µg/mL] | Cytotoxicity (IC50) DU145 [4] [µg/mL] | Cytotoxicity (IC50) PC3 [5] [µg/mL] | Cytotoxicity (IC50) SKOV3 [6] [µg/mL] | IC50 ([1]; Homo sapiens, LNCaP, read-out: Cytotoxicity (IC50) LNCaP) [µg/mL] | IC50 ([2]; Homo sapiens, MCF7, 48 h, read-out: Cytotoxicity (IC50) MCF-7) [µg/mL] | IC50 ([3]; Homo sapiens, A549, 48 h, read-out: Cytotoxicity (IC50) A549) [µg/mL] | IC50 ([4]; Homo sapiens, DU-145, 48 h, read-out: Cytotoxicity (IC50) DU145) [µg/mL] | IC50 ([5]; Homo sapiens, PC-3, 48 h, read-out: Cytotoxicity (IC50) PC3) [µg/mL] | IC50 ([6]; Homo sapiens, SK-OV-3, 48 h, read-out: Cytotoxicity (IC50) SKOV3) [µg/mL] | CRE-luciferase activity in HEK293-GnRHR cells [7] [fold]
1 | CC(C)C[C@H](NC(=O)CNC(=O)[C@@H](NC(=O)[C@H](CO)NC(=O)[C@H](CC(C)C)NC(=O)[C@H](CC(C)C)NC(=O)[C@H](C)NC(=O)[C@@H]1CCCN1C(=O)[C@H](CCCNC(=N)N)NC(=O)[C@H](C)NC(=O)[C@@H](N)CCC(=O)O)[C@@H](C)O)C(=O)N[C@@H](CCCNC(=N)N)C(=O)N1CCC[C@H]1C(=O)N[C@@H](CCCCN)C(=O)O [HS1006] (H-EARPALLSTGLRPK-OH; N-terminus and C-terminus assumed) | 14.17 ± 0.47 | 55.24 ± 2.41 | 10.68 ± 0.25 | 19.46 ± 0.26 | 15.2 ± 1.12 | 13.91 ± 1.17 | – | – | – | – | – | – | –
2 | CC(C)C[C@H](NC(=O)[C@H](C)NC(=O)[C@@H]1CCCN1C(=O)[C@H](CCCNC(=N)N)NC(=O)[C@H](C)NC(=O)[C@@H](N)CCC(=O)O)C(=O)N[C@@H](CC(C)C)C(=O)N[C@@H](CO)C(=O)N[C@H](C(=O)N[C@@H](CCCNC(=N)N)C(=O)N[C@@H](Cc1ccccc1)C(=O)N[C@@H](CCCNC(=N)N)C(=O)N1CCC[C@H]1C(=O)N[C@@H](CCCCN)C(=O)O)[C@@H](C)O [HS1005] (H-EARPALLSTRFRPK-OH; N-terminus and C-terminus assumed) | 11.23 ± 1.01 | 44.15 ± 2.63 | 14.75 ± 0.83 | 16.17 ± 1.28 | 13.31 ± 1.05 | 14.08 ± 1.04 | – | – | – | – | – | – | –
3 | CC(=O)O[C@H]1C(=O)[C@@]2(C)[C@H]([C@H](OC(=O)c3ccccc3)[C@]3(O)C[C@H](OC(=O)[C@H](O)[C@@H](NC(=O)c4ccccc4)c4ccccc4)C(C)=C1C3(C)C)[C@]1(OC(C)=O)CO[C@@H]1C[C@@H]2O [PTX, Paclitaxel, reference compound] | – | – | – | – | – | – | 0.81 ± 0.09 (≈ 0.949 µM) | 9.27 ± 1.12 (≈ 10.9 µM) | 3.62 ± 0.04 (≈ 4.24 µM) | 0.73 ± 0.04 (≈ 0.855 µM) | 59.4 ± 3.21 (≈ 69.6 µM) | 5.41 ± 0.19 (≈ 6.34 µM) | –
4 | CCNC(=O)[C@@H]1CCCN1C(=O)[C@@H](NC(=O)[C@H](Cc1ccccc1)NC(=O)[C@H](C)NC(=O)[C@H](CC(C)C)NC(=O)[C@H](CCCNC(=N)N)NC(=O)[C@H](Cc1ccc(O)cc1)NC(=O)[C@H](CO)NC(=O)[C@H](Cc1c[nH]c2ccccc12)NC(=O)[C@H](Cc1c[nH]cn1)NC(=O)[C@@H]1CCC(=O)N1)[C@@H](C)CC [HS1004] ([pGlu]HWSYRLAFIP-NHEt; C-terminus assumed) | 9.97 ± 0.85 | 37.47 ± 1.58 | – | 17.54 ± 0.74 | 16.49 ± 0.74 | 5.19 ± 0.82 | – | – | – | – | – | – | –
5 | CC(C)C[C@H](NC(=O)[C@H](C)NC(=O)[C@@H]1CCCN1C(=O)[C@H](CCCNC(=N)N)NC(=O)[C@H](C)NC(=O)[C@@H](N)CCC(=O)O)C(=O)N[C@@H](CC(C)C)C(=O)N[C@@H](CO)C(=O)N[C@H](C(=O)N[C@@H](CCCNC(=N)N)C(=O)N[C@@H](CC(C)C)C(=O)N[C@@H](CCCNC(=N)N)C(=O)N1CCC[C@H]1C(=O)O)[C@@H](C)O [HS1001] (H-EARPALLSTRLRP-OH; N-terminus and C-terminus assumed) | 6.55 ± 0.96 | 48.26 ± 1.23 | 4.18 ± 0.15 | 7.82 ± 0.37 | 8.05 ± 1.58 | 6.14 ± 0.79 | – | – | – | – | – | – | –
6 | CCNC(=O)[C@@H]1CCCN1C(=O)[C@@H](NC(=O)[C@H](Cc1ccccc1)NC(=O)[C@H](CCCNC(=N)N)NC(=O)[C@@H]1CCCN1C(=O)[C@H](C)NC(=O)[C@H](Cc1ccc(O)cc1)NC(=O)[C@H](CO)NC(=O)[C@H](Cc1c[nH]c2ccccc12)NC(=O)[C@H](Cc1c[nH]cn1)NC(=O)[C@@H]1CCC(=O)N1)[C@@H](C)CC [HS1003] ([pGlu]HWSYAPRFIP-NHEt; C-terminus assumed) | 10.9 ± 0.48 | 47.28 ± 2.05 | 9.48 ± 0.08 | 12.37 ± 0.31 | 24.05 ± 1.13 | 5.79 ± 0.38 | – | – | – | – | – | – | –
7 | [pGlu]HWSYRLRFIP-NHEt (SMILES CCNC(=O)[C@@H]1CCCN1C(=O)[C@@H](NC(=O)[C@H](Cc1ccccc1)NC(=O)[C@H](CCCNC(=N)N)NC(=O)[C@H](CC(C)C)NC(=O)[C@H](CCCNC(=N)N)NC(=O)[C@H](Cc1ccc(O)cc1)NC(=O)[C@H](CO)NC(=O)[C@H](Cc1c[nH]c2ccccc12)NC(=O)[C@H](Cc1c[nH]cn1)NC(=O)[C@@H]1CCC(=O)N1)[C@@H](C)CC) [peptide HS1002] | – | – | – | – | – | – | – | – | – | – | – | – | 2
